The values that follow come from US4438120A, “Pyridoindolobenzodiazepine tranquilizers” (E. I. Du Pont de Nemours & Company, priority 1982, dated 1984).

The assay has as its system Conditioned Avoidance Response (CAR). In words: Conditioned Avoidance Response (CAR) test in mice, oral. Format: in vivo, mouse (female white mice). The note with it: female white mice, moving average method.
Procedure: The paradigm used for predicting tranquilizer activity was a Conditioned Avoidance Response (CAR) test in mice. Female white mice, 19-23 g, were used. The apparatus modified from Bovet, D. et al., Science, 163, 139-149 (1969), was a one-way shuttlebox with 0.4 mA scrambled electric footshock as unconditioned stimulus (US) and a 6 watt white light plus a relay buzzer as conditioned stimuli (CS). Mice were conditioned by three sets of 1-5 trials on day 1, then were fasted for 17-21 hours. The conditioned mice were tested for retention of the conditioned response on day 2, and then were dosed orally with test drug at doses such as 0, 1, 3, 9, 27 and 81 mg/kg. ED50 values (doses at which 50% of the animals would be expected to show response failure) were calculated by the moving average method [Thompson, W. R., Bact. Rev., 11, 115 (1947)].
Consider `Cl.O=C(O)CCCN1CCc2c(c3cc(Cl)cc4c3n2-c2ccccc2C(=O)N4)C1` [Example 51, 6-Chloro-1,2,8,9-tetrahydro-9-oxopyrido[4',3':2,3]indolo[1,7-ab][1,4]benzodiazepin-3(4H)-butanoic acid hydrochloride], for which the “Mouse CAR ED50 (avoidance ED50, dose at which 50% of the animals would be expected to show response failure)” value was found to be 56.2 mg/kg.
The value for `Clc1cc2c3c(c1)c1c(n3-c3ccccc3CN2)CCNC1` [Example 59, 6-Chloro-1,2,3,4,8,9-hexahydropyrido[4',3':2,3]indolo[1,7-ab][1,4]benzodiazepine] was 9.0 mg/kg.
The value for `Clc1ccc2c(c1)CNc1cccc3c4c(n-2c13)CCNC4` [Example 61] was 34 mg/kg; that for `CN1Cc2ccccc2-n2c3c(c4cc(C(F)(F)F)cc1c42)CNCC3` [Example 62] was over 81 mg/kg; that for `Clc1cc2c3c(c1)c1c(n3-c3ccccc3CN2)CCN(CC2CCCCC2)C1` [Example 68, 6-Chloro-3-cyclohexylmethyl-1,2,3,4,8,9-hexahydropyrido[4',3':2,3]indolo[1,7-ab][1,4]benzodiazepine] was 7.1 mg/kg.
For `Clc1ccc2c(c1)CNc1cccc3c4c(n-2c13)CCN(CCc1ccccc1)C4` [Example 69], the “Mouse CAR ED50 (avoidance ED50, dose at which 50% of the animals would be expected to show response failure)” value was 27 mg/kg.
